test system: CHOP (DDIT3) reporter; assay: GCN2-induction of CHOP and apoptosis in 3T3 fibroblasts with CHOP (DDIT3) reporter construct; type: cell-based, murine; settings: murine 3T3 WT and GCN2 knockout CHOP reporter cells, stress inducer alone
Procedure: The CHOP construct comprised the […] (UTR) of mouse DDIT3 mRNA fused to a sequence encoding the fluorescent protein mCherry.
Cells were seeded at 5,000 cells per well in flat bottom 96-well plates in 100 μL DMEM low glucose media without phenol red, and supplemented with 10% FBS and 2 mM glutamine. After 24 hours, the exemplary compounds, and either tunicamycin, halofuginone, or histidinol, were added together with 100 nM of fluorescent apoptosis stain (YO-PRO™-1 Iodide; Thermo Fisher) to detect apoptotic cells. Cells were placed in a live-cell imaging and analysis platform (IncuCyte ZOOM®; Essenbio) set up in a humidified incubator at 37° C. and the plates were scanned every 4 hours for up 120 hours, at 10× magnification, to determine cell confluence and cell death. Experiments were performed in duplicate with 3 images collected per well, and analyzed using live-cell imaging and analysis software (IncuCyte ZOOM® 2018A software; Essenbio).

| Molecule | induction of CHOP (mCherry) |
| --- | --- |
| tunicamycin [reference compound] | significant induction of CHOP in both the WT and GCN2 knockout cell lines |

target: T1, GCN2 (Mus musculus, UniProt Q9QZ05); assay: GCN2 inhibition cell-based assay (P-GCN2 Western blot in Neuro 2a cells); settings: amino acid deprived media (DMEM lacking L-cysteine and methionine), 3 hours
T1 construct: endogenous in cells; host or cells: Neuro 2a (N2a)
Procedure: Neuro 2a cells (N2a) were maintained at 37° C. and 5% CO2 in DMEM/F12 medium (Fisher Scientific) supplemented with 10% fetal bovine serum and 1% penicillin-streptomycin (complete medium). 300,000 cells/well were seeded in flat bottom 6 well plates 48 hours before treatment with the compounds.
Testing compounds were prepared at different concentrations ranging from 10 μM to 0.1 nM on DMEM medium lacking L-cysteine and methionine (DMEM-CM) (Gibco) and supplemented with 1% penicillin-streptomycin. Complete medium was used as control of non-stressed condition. After 48 hours, the medium was removed from each well and 2 mL per well of each treatment was added. Cells were treated for 3 hours at 37° C. and 5% CO2.
After the incubation time, each well was washed with sterile 1×PBS and then 100 μL of ice-cold lysis buffer supplemented with phosphatase and protease inhibitors was added. Lysates were transferred to 1.5 mL tubes and sonicated for 3 min, and total protein amounts were quantified using BCA assay (e.g., BCA Protein Assay Kit; Pierce) according to manufacturer instructions. Equal amount of proteins was loaded on SDS-PAGE gels for electrophoresis and then transferred onto 0.2 µm filter pore PVDF membranes.
Membranes were then blocked in blocking buffer containing 3% BSA/0.1% Tween/1×Tris-buffered saline (TBS) for 1 hour and then incubated overnight at 4° C. with agitation with anti-pGCN2 primary antibody (Abcam ab-75836), diluted 1:1,000 in blocking buffer. […] (Sigma Aldrich) was used as a loading control.
Membranes were then incubated with the corresponding secondary antibody to detect immune-reactive bands using enhanced chemiluminescence (e.g., ECL Western Blotting Substrate Pierce).
Images were acquired (e.g., using Chemidoc™ equipment) and quantitated by densitometry using ImageJ software. IC50 values were determined from a concentration-response curve using GraphPad prism software.
IC50 values from P-GCN2 inhibition assay after induction with amino acid deprived media in the presence of different concentrations of test compounds are shown in Table 2. For IC50 values: +++ refers to <10 nM of test compound; ++ refers to 10 nM to 100 nM of test compound; + refers to 100 nM to 1,000 nM of test compound and − refers to >1,000 nM of test compound.
Under GCN2-mediated stress conditions, resulting from an amino acid deprived medium, GCN2 is generally phosphorylated. Accordingly, inhibition of GCN2 phosphorylation as a result of the test compound indicates inhibition of the GCN2 pathway.

T1 sequence (Q9QZ05 whole entry): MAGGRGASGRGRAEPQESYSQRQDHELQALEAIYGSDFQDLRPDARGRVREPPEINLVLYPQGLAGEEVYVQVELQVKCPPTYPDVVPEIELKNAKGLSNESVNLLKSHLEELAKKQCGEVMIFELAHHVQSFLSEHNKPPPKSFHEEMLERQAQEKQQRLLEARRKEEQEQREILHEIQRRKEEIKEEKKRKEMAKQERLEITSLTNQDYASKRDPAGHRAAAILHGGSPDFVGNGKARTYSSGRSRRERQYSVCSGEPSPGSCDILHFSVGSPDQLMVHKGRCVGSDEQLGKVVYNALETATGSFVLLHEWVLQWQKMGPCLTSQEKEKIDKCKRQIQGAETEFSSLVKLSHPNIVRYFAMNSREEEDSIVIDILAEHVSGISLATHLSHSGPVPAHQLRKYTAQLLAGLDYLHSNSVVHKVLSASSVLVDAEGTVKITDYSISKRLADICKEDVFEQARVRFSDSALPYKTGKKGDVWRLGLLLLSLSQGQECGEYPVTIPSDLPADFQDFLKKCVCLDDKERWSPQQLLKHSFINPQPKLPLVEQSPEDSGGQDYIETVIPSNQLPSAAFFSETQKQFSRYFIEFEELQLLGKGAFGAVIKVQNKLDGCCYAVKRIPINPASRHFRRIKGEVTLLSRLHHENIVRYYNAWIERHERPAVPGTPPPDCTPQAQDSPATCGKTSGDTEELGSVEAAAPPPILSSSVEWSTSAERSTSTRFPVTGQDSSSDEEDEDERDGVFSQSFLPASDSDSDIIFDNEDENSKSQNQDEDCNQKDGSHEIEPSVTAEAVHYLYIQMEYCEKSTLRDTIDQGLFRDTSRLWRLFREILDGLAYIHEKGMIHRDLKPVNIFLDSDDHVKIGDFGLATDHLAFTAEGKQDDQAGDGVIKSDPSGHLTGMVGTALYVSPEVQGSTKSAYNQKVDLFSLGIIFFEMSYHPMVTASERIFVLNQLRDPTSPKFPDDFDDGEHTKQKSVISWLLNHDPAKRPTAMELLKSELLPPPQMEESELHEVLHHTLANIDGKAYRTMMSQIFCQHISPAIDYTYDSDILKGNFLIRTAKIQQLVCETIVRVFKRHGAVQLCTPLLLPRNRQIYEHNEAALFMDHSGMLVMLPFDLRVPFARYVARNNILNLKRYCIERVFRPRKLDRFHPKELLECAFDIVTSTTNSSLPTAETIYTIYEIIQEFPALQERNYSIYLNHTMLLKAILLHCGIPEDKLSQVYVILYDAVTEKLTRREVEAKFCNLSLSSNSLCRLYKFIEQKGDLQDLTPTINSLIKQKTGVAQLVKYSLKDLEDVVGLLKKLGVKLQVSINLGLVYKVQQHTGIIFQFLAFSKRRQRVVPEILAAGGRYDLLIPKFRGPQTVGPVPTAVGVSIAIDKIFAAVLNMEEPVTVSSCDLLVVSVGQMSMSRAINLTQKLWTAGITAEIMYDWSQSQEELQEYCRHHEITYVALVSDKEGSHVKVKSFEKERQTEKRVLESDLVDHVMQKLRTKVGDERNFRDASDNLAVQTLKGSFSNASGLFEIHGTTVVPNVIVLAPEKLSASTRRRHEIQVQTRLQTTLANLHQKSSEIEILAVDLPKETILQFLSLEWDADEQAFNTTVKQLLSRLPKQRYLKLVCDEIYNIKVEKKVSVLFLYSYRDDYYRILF

| Molecule | IC50 |
| --- | --- |
| COc1ccc(OC)c(S(=O)(=O)Nc2ccc(F)c(-c3ccc4nc(N)ncc4c3)c2F)c1 [Compound 119] | > 1000 nM |
| Nc1ncc2cc(-c3c(F)ccc(NS(=O)(=O)c4ccc5c(c4)CCC5)c3F)ccc2n1 [Compound 161] | > 1000 nM |
| Cc1cccc(S(=O)(=O)Nc2ccc(F)c(-c3ccc4nc(N)ncc4c3)c2F)c1 [Compound 125] | > 1000 nM |
| COc1ncc(Cl)cc1S(=O)(=O)Nc1ccc(F)c(-c2ccc3nc(N[C@H](CO)c4ccccc4)ncc3c2)c1F [Compound 163] | 100 to 1000 nM |
| Nc1ncc2cc(-c3c(F)ccc(NS(=O)(=O)c4cccc(OC(F)(F)F)c4)c3F)ccc2n1 [Compound 139] | 100 to 1000 nM |
| COc1ccc(F)cc1S(=O)(=O)Nc1ccc(F)c(-c2ccc3nc(N)ncc3c2)c1F [Compound 110] | > 1000 nM |
| Nc1ncc2cc(-c3ccc(F)c(NS(=O)(=O)c4cc(Cl)ccc4Cl)c3F)ccc2n1 [Compound 12] | > 1000 nM |
| Nc1ncc2cc(-c3c(F)ccc(NS(=O)(=O)C4CCCCC4)c3F)ccc2n1 [Compound 81] | > 1000 nM |
| O=S(=O)(Nc1ccc(F)c(-c2cc(F)c3[nH]cnc3c2)c1F)c1cc(Cl)ccc1Cl [Compound 18] | > 1000 nM |
| COc1ncc(Cl)cc1S(=O)(=O)Nc1ccc(F)c(-c2ccc3nc(N(C)C)ncc3c2)c1F [Compound 155] | 100 to 1000 nM |
| Nc1ncc2c(-c3c(F)ccc(NS(=O)(=O)c4cc(Cl)ccc4Cl)c3F)cccc2n1 [Compound 111] | > 1000 nM |
| CCc1ccc(OC)c(S(=O)(=O)Nc2ccc(F)c(-c3ccc4nc(N)ncc4c3)c2F)c1 [Compound 120] | > 1000 nM |
| Nc1ncc2cc(-c3c(F)ccc(NS(=O)(=O)c4ccc(Cl)c(Cl)c4)c3F)ccc2n1 [Compound 9] | 100 to 1000 nM |
| Nc1ncc2cc(-c3c(F)ccc(NS(=O)(=O)c4cc(F)ccc4F)c3F)ccc2n1 [Compound 8] | > 1000 nM |
| Nc1ncc2cc(-c3c(F)ccc(NS(=O)(=O)c4cccs4)c3F)ccc2n1 [Compound 142] | > 1000 nM |
| Nc1ccc2cc(-c3c(F)ccc(NS(=O)(=O)c4cc(Cl)ccc4Cl)c3F)ccc2n1 [Compound 107] | > 1000 nM |
| Nc1ncc2cc(-c3c(F)ccc(NS(=O)(=O)c4cccc(F)c4F)c3F)ccc2n1 [Compound 124] | > 1000 nM |

| Molecule | IC50 |
| --- | --- |
| COc1ncc(Cl)cc1S(=O)(=O)Nc1ccc(F)c(-c2cccc3cnc(N)nc23)c1F [Compound 44] | > 1000 nM |
| Nc1ncc2cc(-c3cc(F)cc(NS(=O)(=O)c4cc(Cl)ccc4Cl)c3)ccc2n1 [Compound 14] | > 1000 nM |
| COc1ncc(Cl)cc1S(=O)(=O)Nc1ccc(F)c(-c2ccc3nc(N)ccc3c2)c1F [Compound 20] | > 1000 nM |
| Nc1ncc2cc(-c3c(F)ccc(NS(=O)(=O)c4ccc5occc5c4)c3F)ccc2n1 [Compound 122] | 100 to 1000 nM |
| Nc1ncc2cc(-c3cccc4c3ccn4S(=O)(=O)c3cc(Cl)ccc3Cl)ccc2n1 [Compound 76] | > 1000 nM |
| Nc1ncc2cc(-c3c(F)ccc(NS(=O)(=O)c4cccnc4)c3F)ccc2n1 [Compound 130] | > 1000 nM |
| COc1ncc(Cl)cc1S(=O)(=O)Nc1ccc(F)c(-c2ccc3nc(N[C@@H](CO)c4ccccc4)ncc3c2)c1F [Compound 154] | 100 to 1000 nM |
| Nc1ncc2cc(-c3c(F)ccc(NS(=O)(=O)c4cc(F)cc(C(F)(F)F)c4)c3F)ccc2n1 [Compound 123] | > 1000 nM |
| Nc1ncc2cc(-c3c(F)ccc(NS(=O)(=O)c4cccc(C(F)(F)F)c4)c3F)ccc2n1 [Compound 145] | > 1000 nM |
| Cc1cc(S(=O)(=O)Nc2ccc(F)c(-c3ccc4nc(N)ncc4c3)c2F)ccc1F [Compound 160] | > 1000 nM |
| Nc1ncc2cc(-c3c(F)ccc(NS(=O)(=O)c4ccc(Cl)c(C(F)(F)F)c4)c3F)ccc2n1 [Compound 149] | 100 to 1000 nM |
| Nc1ncc2cc(-c3c(F)ccc(NS(=O)(=O)c4ccc(F)c(C(F)(F)F)c4)c3F)ccc2n1 [Compound 138] | > 1000 nM |
| Nc1ncc2cc(-c3c(F)ccc(NS(=O)(=O)c4ccc(F)c(Cl)c4)c3F)ccc2n1 [Compound 158] | 100 to 1000 nM |
| O=S(=O)(Nc1ccc(F)c(-c2ccc3nc(N[C@@H](CO)c4ccccc4)ncc3c2)c1F)c1cc(Cl)ccc1C(F)(F)F [Compound 167] | 100 to 1000 nM |
| Nc1ncc2cc(-c3c(F)ccc(NS(=O)(=O)c4cc(F)cc(F)c4)c3F)ccc2n1 [Compound 112] | > 1000 nM |
| COc1ncc(Cl)cc1S(=O)(=O)Nc1ccc(F)c(-c2ccc3nc(N)ncc3c2)c1 [Compound 19] | 100 to 1000 nM |
| CC(C)c1cccc(S(=O)(=O)Nc2ccc(F)c(-c3ccc4nc(N)ncc4c3)c2F)c1 [Compound 141] | > 1000 nM |

Results, then the molecule that gave them:

| IC50 | Molecule |
| --- | --- |
| 10 to 100 nM | COc1ncc(Cl)cc1S(=O)(=O)Nc1ccc(F)c(-c2ccc3nc(NC(CO)CO)ncc3c2)c1F [Compound 153] |
| 10 to 100 nM | COc1ncc(Cl)cc1S(=O)(=O)Nc1ccc(F)c(-c2ccc3nc(NC(=O)C(C)(C)C)ncc3c2)c1F [Compound 105] |
| < 10 nM | COc1ncc(Cl)cc1S(=O)(=O)Nc1cccc(-c2ccc3nc(N)ncc3c2)c1C [Compound 51] |
| 10 to 100 nM | COc1ncc(Cl)cc1S(=O)(=O)Nc1ccc(F)c(-c2ccc3nc(N4CCCCC4)ncc3c2)c1F [Compound 156] |
| < 10 nM | COc1ncc(Cl)cc1S(=O)(=O)Nc1ccc(F)c(-c2ccc3nc(N[C@H]4CC[C@@H](O)CC4)ncc3c2)c1F [Compound 129] |
| 10 to 100 nM | COc1ccc(C)cc1S(=O)(=O)Nc1ccc(F)c(-c2ccc3nc(N)ncc3c2)c1F [Compound 118] |
| 10 to 100 nM | Cc1c(NS(=O)(=O)c2cc(Cl)ccc2Cl)cccc1-c1ccc2nc(N)ncc2c1 [Compound 11] |
| < 10 nM | O=S(=O)(Nc1ccc(F)c(-c2ccc3nc(N[C@H]4CC[C@H](O)CC4)ncc3c2)c1F)c1cc(Cl)ccc1Cl [Compound 67] |
| < 10 nM | O=S(=O)(Nc1ccc(F)c(-c2ccc3nc(NCCO)ncc3c2)c1F)c1cc(Cl)cc(CO)c1Cl [Compound 134] |
| 10 to 100 nM | Cc1cc(S(=O)(=O)Nc2ccc(F)c(-c3ccc4nc(N)ncc4c3)c2F)c(C)cc1Cl [Compound 109] |
| < 10 nM | Cc1cc(C)cc(S(=O)(=O)Nc2ccc(F)c(-c3ccc4nc(N)ncc4c3)c2F)c1 [Compound 113] |
| < 10 nM | COc1ccc(Cl)cc1S(=O)(=O)Nc1ccc(F)c(-c2ccc3nc(N)ncc3c2)c1F [Compound 10] |
| < 10 nM | COc1ncc(Cl)cc1S(=O)(=O)Nc1ccc(F)c(-c2ccc3nc(N[C@H]4CC[C@H](O)CC4)ncc3c2)c1F [Compound 65] |
| 10 to 100 nM | Nc1ncc2cc(-c3c(F)ccc(NS(=O)(=O)c4ccc(Cl)cc4C(F)(F)F)c3F)ccc2n1 [Compound 137] |
| < 10 nM | Nc1ncc2cc(-c3c(F)ccc(NS(=O)(=O)c4cc(Cl)ccc4C(F)(F)F)c3F)ccc2n1 [Compound 58] |
| < 10 nM | COc1ncc(Cl)cc1S(=O)(=O)Nc1ccc(F)c(-c2ccc3nc(N[C@H](C)CO)ncc3c2)c1F [Compound 66] |
| < 10 nM | CNc1ncc2cc(-c3c(F)ccc(NS(=O)(=O)c4cc(Cl)cnc4OC)c3F)ccc2n1 [Compound 47] |
| 10 to 100 nM | Cc1ccc(F)cc1S(=O)(=O)Nc1ccc(F)c(-c2ccc3nc(N)ncc3c2)c1F [Compound 133] |
| < 10 nM | Nc1ncc2cc(-c3cccc(NS(=O)(=O)c4cc(Cl)ccc4Cl)c3F)ccc2n1 [Compound 13] |
| 10 to 100 nM | Nc1ncc2cc(-c3c(F)ccc(NS(=O)(=O)c4cc(Cl)cc(C(F)(F)F)c4)c3F)ccc2n1 [Compound 63] |
| 10 to 100 nM | COc1ncc(Cl)cc1S(=O)(=O)Nc1ccc(Cl)c(-c2ccc3nc(N)ncc3c2)c1Cl [Compound 131] |
| < 10 nM | Nc1ncc2cc(-c3c(F)ccc(NS(=O)(=O)c4cccc5cnccc45)c3F)ccc2n1 [Compound 64] |
| < 10 nM | Nc1ncc2cc(-c3c(F)ccc(NS(=O)(=O)c4cc(C(F)(F)F)ccc4C(F)(F)F)c3F)ccc2n1 [Compound 121] |
